This assay has as its target T1, GPR40 (Homo sapiens, UniProt O14842).
T1 construct: expressed in transfected cells; host or cells: HEK293 cells stably expressing GPR40 (Hygromycin selection)
The experiment in a line: IP1 accumulation assay in HEK293 cells stably expressing GPR40. The class given is cell-based. The method in brief:
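HEK293 cells stably expressing human GPR40 were incubated with compounds (10-point, 3-fold dilution series) for 2 h at 37 °C, then IP1 was detected by HTRF (665/615 nm ratio). Effect was normalised to DMSO blank and AMG-1638 as 100%, and EC50 was derived from dose curves.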

The mark [1] stands for this setting: IP1 accumulation, HEK293 cells stably expressing GPR40, 2 hours at 37° C., % effect relative to AMG-1638, table of Biological Example 1.
[2] abbreviates: Tables A-1a to A-7b (structure-property relationship), obtained by methods of Biological Example 1.
Where [3] appears, read: Table A-8 (additional examples), obtained by methods of Biological Example 1.

This is an account of results in patent US20250223281A1, “ANTIDIABETIC COMPOUNDS AND COMPOSITIONS” (REZUBIO PHARMACEUTICALS CO., LTD, priority 2022, published 2025).

Molecules are shown by their SMILES. Where only a bound is given, the exact number is not on record here.

T1 sequence (O14842 whole entry): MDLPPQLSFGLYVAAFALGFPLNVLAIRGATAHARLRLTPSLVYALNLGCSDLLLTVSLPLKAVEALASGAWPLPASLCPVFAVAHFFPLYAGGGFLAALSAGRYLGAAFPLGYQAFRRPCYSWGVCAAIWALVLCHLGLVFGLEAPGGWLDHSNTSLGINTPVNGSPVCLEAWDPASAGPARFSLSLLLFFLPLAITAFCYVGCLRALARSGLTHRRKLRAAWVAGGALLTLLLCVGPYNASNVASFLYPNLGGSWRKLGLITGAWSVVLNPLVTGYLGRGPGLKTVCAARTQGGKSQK

By EC50 is commonly meant the concentration that produces a half-maximal response. A higher EC50 goes with lower potency in that assay. For the molecule `COc1ccc(F)c(-c2ccc(COc3cccc([C@@H](CC(=O)O)C4CC4)c3)cc2CC(C)(C)Cn2cc(CCCCCCCCCC(=O)NCCCN(CC(=O)O)CC(=O)O)nn2)c1` [Example 104], the EC50 under setting [1] is above 10000 nM.

`COc1ccc(F)c(-c2ccc(COc3cccc([C@@H](CC(=O)O)C4CC4)c3)cc2CC(C)(C)Cn2cc(CCCCCCCCCC(=O)NCCC[N+](C)(CC(=O)[O-])CC(=O)O)nn2)c1` (stereo partly shown) [Example 105]: under setting [1], the EC50 is above 10000 nM.

As for `COc1ccc(F)c(-c2ccc(COc3cccc([C@@H](CC(=O)O)C4CC4)c3)cc2CC(C)(C)Cn2cc(CCCCCCCCCCCCCC(=O)NCCCN(CC(=O)O)CC(=O)O)nn2)c1` [Example 106], the EC50 under setting [1] came out at 696 nM.

In the case of `COc1ccc(F)c(-c2ccc(COc3cccc([C@@H](CC(=O)O)C4CC4)c3)cc2CC(C)(C)Cn2cc(CCCCCCCCCCCCCC(=O)NCCC[N+](C)(CC(=O)O)CC(=O)O)nn2)c1` [Example 107], the midpoint of the response under setting [1], the EC50, lay at 1310 nM.

The molecule `COc1ccc(F)c(-c2ccc(COc3cccc([C@@H](CC(=O)O)C4CC4)c3)cc2CC(C)(C)Cn2cc(CCCCCCCCCCCCCCC(=O)NCCCN(CC(=O)O)CC(=O)O)nn2)c1` [Example 108] registered an EC50 under setting [1] of 312 nM.

Molecule `COc1ccc(F)c(-c2ccc(COc3cccc([C@@H](CC(=O)O)C4CC4)c3)cc2CC(C)(C)Cn2cc(CCCCCCCCCCCCCCC(=O)NCCC[N+](C)(CC(=O)O)CC(=O)O)nn2)c1` [Example 109] gave an EC50 under setting [1] above 1000 nM.

Take `COc1ccc(C(=O)N(CC(C)(C)CCn2cc(CCCCCCCCC(=O)NCCN(CCC(=O)NCCN)CCC(=O)NCCN)nn2)c2cccc(C)n2)c(N2CCC(COc3cc([C@@H](CC(=O)O)C4CC4)ccn3)CC2)c1` [Example 110]: the EC50 reads like this: under setting [1], 618 nM; under setting [2], 618 nM.

As to `COc1ccc(C(=O)N(CC(C)(C)CCn2cc(CCCCCCCCC(=O)NCC[N+](C)(CCC(=O)NCCN)CCC(=O)NCCN)nn2)c2cccc(C)n2)c(N2CCC(COc3cc([C@@H](CC(=O)O)C4CC4)ccn3)CC2)c1` [Example 111], the EC50 is 307 nM under setting [1] and 307 nM under setting [2].

As for `COc1ccc(C(=O)N(CC(C)(C)CCn2cc(CCCCCCCCCCC(=O)NCCN(CCC(=O)NCCN)CCC(=O)NCCN)nn2)c2cccc(C)n2)c(N2CCC(COc3cc([C@@H](CC(=O)O)C4CC4)ccn3)CC2)c1` [Example 112], the EC50 runs as follows: under setting [1], 14.9 nM; under setting [2], 14.9 nM.

`COc1ccc(C(=O)N(CC(C)(C)CCn2cc(CCCCCCCCCCC(=O)NCC[N+](C)(CCC(=O)NCCN)CCC(=O)NCCN)nn2)c2cccc(C)n2)c(N2CCC(COc3cc([C@@H](CC(=O)O)C4CC4)ccn3)CC2)c1` [Example 113]: the EC50 is 6.27 nM under setting [1] and 6.27 nM under setting [2].

On to `COc1ccc(C(=O)N(CC(C)(C)CCn2cc(CCCCCCCCCCCCC(=O)NCCN(CCC(=O)NCCN)CCC(=O)NCCN)nn2)c2cccc(C)n2)c(N2CCC(COc3cc([C@@H](CC(=O)O)C4CC4)ccn3)CC2)c1` [Example 114], for which the EC50 by setting is: under setting [1], 0.42 nM; under setting [3], 0.42 nM; under setting [2], 0.42 nM.

`COc1ccc(C(=O)N(CC(C)(C)CCn2cc(CCCCCCCCCCCCC(=O)NCC[N+](C)(CCC(=O)NCCN)CCC(=O)NCCN)nn2)c2cccc(C)n2)c(N2CCC(COc3cc([C@@H](CC(=O)O)C4CC4)ccn3)CC2)c1` [Example 115]: the EC50 by setting is: under setting [1], 0.51 nM; under setting [3], 0.51 nM; under setting [2], 0.51 nM.

Turning to `COc1ccc(C(=O)N(CC(C)(C)CCn2cc(CCCCCCCCCCCCCC(=O)NCCN(CCC(=O)NCCN)CCC(=O)NCCN)nn2)c2cccc(C)n2)c(N2CCC(COc3cc([C@@H](CC(=O)O)C4CC4)ccn3)CC2)c1` [Example 116], the EC50 reads like this: under setting [1], 0.21 nM; under setting [2], 0.21 nM.

In turn, `COc1ccc(C(=O)N(CC(C)(C)CCn2cc(CCCCCCCCCCCCCC(=O)NCC[N+](C)(CCC(=O)NCCN)CCC(=O)NCCN)nn2)c2cccc(C)n2)c(N2CCC(COc3cc([C@@H](CC(=O)O)C4CC4)ccn3)CC2)c1` [Example 117] gave an EC50 under setting [1] of 0.29 nM and an EC50 under setting [2] of 0.29 nM.

Regarding `COc1ccc(C(=O)N(CC(C)(C)CCn2cc(CCCCCCCCCCCCCCC(=O)NCCN(CCC(=O)NCCN)CCC(=O)NCCN)nn2)c2cccc(C)n2)c(N2CCC(COc3cc([C@@H](CC(=O)O)C4CC4)ccn3)CC2)c1` [Example 118], the EC50 runs as follows: under setting [1], 0.33 nM; under setting [2], 0.33 nM.

On to `COc1ccc(C(=O)N(CC(C)(C)CCn2cc(CCCCCCCCCCCCCCC(=O)NCC[N+](C)(CCC(=O)NCCN)CCC(=O)NCCN)nn2)c2cccc(C)n2)c(N2CCC(COc3cc([C@@H](CC(=O)O)C4CC4)ccn3)CC2)c1` [Example 119], for which the EC50 is, setting by setting: under setting [1], 0.1 nM; under setting [2], 0.1 nM.

`COc1ccc(F)c(-c2ccc(COc3cccc([C@@H](CC(=O)O)C4CC4)c3)cc2CC(C)(C)Cn2cc(CCCCCCCCCCCC(=O)NCCCN(CC(=O)O)CC(=O)O)nn2)c1` [Example 120] returned an EC50 under setting [1] of 1290 nM.

For the molecule `COc1ccc(F)c(-c2ccc(COc3cccc([C@@H](CC(=O)O)C4CC4)c3)cc2CC(C)(C)Cn2cc(CCCCCCCCCCCCCCCC(=O)NCCCN(CC(=O)O)CC(=O)O)nn2)c1` [Example 121], under setting [1], the EC50 is 5 nM.

Under setting [1], `COc1ccc(F)c(-c2ccc(COc3cccc([C@@H](CC(=O)O)C4CC4)c3)cc2CC(C)(C)Cn2cc(CCCCCCCCCCCC(=O)NCCC[N+](C)(CC(=O)[O-])CC(=O)O)nn2)c1` (stereo partly shown) [Example 122] yielded an EC50 of 1000 nM.

For the molecule `COc1ccc(F)c(-c2ccc(COc3cccc([C@@H](CC(=O)O)C4CC4)c3)cc2CC(C)(C)Cn2cc(CCCCCCCCCCCCCCCC(=O)NCCC[N+](C)(CC(=O)[O-])CC(=O)O)nn2)c1` (stereo partly shown) [Example 123], under setting [1], the EC50 came out at 32.7 nM.

As for `COc1ccc(C(=O)N(CC(C)(C)CCn2cc(CCCCCCCCCC(=O)NCCCN(CC(=O)O)CC(=O)O)nn2)c2cccc(C)n2)c(N2CCC(COc3cc([C@@H](CC(=O)O)C4CC4)ccn3)CC2)c1` [Example 124], the EC50 reads like this: under setting [1], 226 nM; under setting [2], 226 nM.

For the molecule `COc1ccc(C(=O)N(CC(C)(C)CCn2cc(CCCCCCCCCC(=O)NCCC[N+](C)(CC(=O)[O-])CC(=O)O)nn2)c2cccc(C)n2)c(N2CCC(COc3cc([C@@H](CC(=O)O)C4CC4)ccn3)CC2)c1` (stereo partly shown) [Example 125], the EC50 was determined as 617 nM under setting [1] and 617 nM under setting [2].

Consider `COc1ccc(C(=O)N(CC(C)(C)CCn2cc(CCCCCCCCCCCC(=O)NCCCN(CC(=O)O)CC(=O)O)nn2)c2cccc(C)n2)c(N2CCC(COc3cc([C@@H](CC(=O)O)C4CC4)ccn3)CC2)c1` [Example 126], for which the EC50 by setting is: under setting [1], 5.81 nM; under setting [2], 5.81 nM.

Molecule `COc1ccc(C(=O)N(CC(C)(C)CCn2cc(CCCCCCCCCCCC(=O)NCCC[N+](C)(CC(=O)[O-])CC(=O)O)nn2)c2cccc(C)n2)c(N2CCC(COc3cc([C@@H](CC(=O)O)C4CC4)ccn3)CC2)c1` (stereo partly shown) [Example 127] came in with an EC50 under setting [1] of 6.36 nM and an EC50 under setting [2] of 6.36 nM.

Take `COc1ccc(C(=O)N(CC(C)(C)CCn2cc(CCCCCCCCCCCCCC(=O)NCCCN(CC(=O)O)CC(=O)O)nn2)c2cccc(C)n2)c(N2CCC(COc3cc([C@@H](CC(=O)O)C4CC4)ccn3)CC2)c1` [Example 128]: the EC50 was found to be 1.33 nM under setting [1] and 1.33 nM under setting [2].

For `COc1ccc(C(=O)N(CC(C)(C)CCn2cc(CCCCCCCCCCCCCC(=O)NCCC[N+](C)(CC(=O)[O-])CC(=O)O)nn2)c2cccc(C)n2)c(N2CCC(COc3cc([C@@H](CC(=O)O)C4CC4)ccn3)CC2)c1` (stereo partly shown) [Example 129], the EC50 is, setting by setting: under setting [1], 0.88 nM; under setting [2], 0.88 nM.

Turning to `COc1ccc(C(=O)N(CC(C)(C)CCn2cc(CCCCCCCCCCCCCCC(=O)NCCCN(CC(=O)O)CC(=O)O)nn2)c2cccc(C)n2)c(N2CCC(COc3cc([C@@H](CC(=O)O)C4CC4)ccn3)CC2)c1` [Example 130], the EC50 by setting is: under setting [1], 1.25 nM; under setting [2], 1.25 nM.

With `COc1ccc(C(=O)N(CC(C)(C)CCn2cc(CCCCCCCCCCCCCCC(=O)NCCC[N+](C)(CC(=O)[O-])CC(=O)O)nn2)c2cccc(C)n2)c(N2CCC(COc3cc([C@@H](CC(=O)O)C4CC4)ccn3)CC2)c1` (stereo partly shown) [Example 131], the EC50 is 0.38 nM under setting [1] and 0.38 nM under setting [2].

For `COc1ccc(C(=O)N(CC(C)(C)CCn2cc(CCCCCCCCCCCCCCCCC(=O)NCCCN(CC(=O)O)CC(=O)O)nn2)c2cccc(C)n2)c(N2CCC(COc3cc([C@@H](CC(=O)O)C4CC4)ccn3)CC2)c1` [Example 132], the EC50 under setting [1] came out at 0.19 nM and a half-maximal response under setting [2] (EC50) required 0.19 nM.

Regarding `COc1ccc(C(=O)N(CC(C)(C)CCn2cc(CCCCCCCCCCCCCCCCC(=O)NCCC[N+](C)(CC(=O)[O-])CC(=O)O)nn2)c2cccc(C)n2)c(N2CCC(COc3cc([C@@H](CC(=O)O)C4CC4)ccn3)CC2)c1` (stereo partly shown) [Example 133], the EC50 is, setting by setting: under setting [1], 0.08 nM; under setting [2], 0.08 nM.

On to `COc1ccc(F)c(-c2ccc(COc3cccc([C@@H](CC(=O)O)C4CC4)c3)cc2C(C)(C)c2cn(CCCCCCCCCC(=O)NCCN(CCC(=O)NCCN)CCC(=O)NCCN)nn2)c1` [Example 134], for which the midpoint of the response under setting [1], the EC50, lay at 3600 nM.

On to `COc1ccc(F)c(-c2ccc(COc3cccc([C@@H](CC(=O)O)C4CC4)c3)cc2CC(C)(C)Cc2cn(CCCCCCCCCC(=O)NCCN(CCC(=O)NCCN)CCC(=O)NCCN)nn2)c1` [Example 135], for which the EC50 by setting is: under setting [1], 3700 nM; under setting [2], above 3700 nM.

Regarding `COc1ccc(F)c(-c2ccc(COc3cccc([C@@H](CC(=O)O)C4CC4)c3)cc2OC(C)(C)Cn2cc(CCCCCCCCC(=O)NCCN(CCC(=O)NCCN)CCC(=O)NCCN)nn2)c1` [Example 136], a half-maximal effect under setting [1] (EC50) was put at 1230 nM.

Turning to `COc1ccc(F)c(-c2ccc(COc3cccc([C@@H](CC(=O)O)C4CC4)c3)cc2OC(C)(C)Cn2cc(CCCCCCCCCCC(=O)NCCN(CCC(=O)NCCN)CCC(=O)NCCN)nn2)c1` [Example 137], the response under setting [1] was half-maximal at 2600 nM (EC50).

Under setting [1], `COc1ccc(F)c(-c2ccc(COc3cccc([C@@H](CC(=O)O)C4CC4)c3)cc2OC(C)(C)Cn2cc(CCCCCCCCCCCCCCC(=O)NCCN(CCC(=O)NCCN)CCC(=O)NCCN)nn2)c1` [Example 138] gave an EC50 of 6.87 nM.
